Reference: patent publication US10526316B2, “Quinoxaline and pyridopyrazine derivatives as PI3Kβ inhibitors” (Janssen Pharmaceutica NV, priority 2015, dated 2020)
Like-named read-outs stand apart in the source and are kept apart here.

How the values were obtained:
[1] = target: T1, PI3Kβ (Homo sapiens, UniProt P42338); assay: Enzyme binding assay (KINOMEscan, DiscoveRx); conditions: PIK3Cβ_h, read-out: Kd PIK3Cβ_h
T1 construct: purchased DiscoveRx Corporation, San Diego (contract service, KINOMEscan)
T1 sequence (P42338 whole entry): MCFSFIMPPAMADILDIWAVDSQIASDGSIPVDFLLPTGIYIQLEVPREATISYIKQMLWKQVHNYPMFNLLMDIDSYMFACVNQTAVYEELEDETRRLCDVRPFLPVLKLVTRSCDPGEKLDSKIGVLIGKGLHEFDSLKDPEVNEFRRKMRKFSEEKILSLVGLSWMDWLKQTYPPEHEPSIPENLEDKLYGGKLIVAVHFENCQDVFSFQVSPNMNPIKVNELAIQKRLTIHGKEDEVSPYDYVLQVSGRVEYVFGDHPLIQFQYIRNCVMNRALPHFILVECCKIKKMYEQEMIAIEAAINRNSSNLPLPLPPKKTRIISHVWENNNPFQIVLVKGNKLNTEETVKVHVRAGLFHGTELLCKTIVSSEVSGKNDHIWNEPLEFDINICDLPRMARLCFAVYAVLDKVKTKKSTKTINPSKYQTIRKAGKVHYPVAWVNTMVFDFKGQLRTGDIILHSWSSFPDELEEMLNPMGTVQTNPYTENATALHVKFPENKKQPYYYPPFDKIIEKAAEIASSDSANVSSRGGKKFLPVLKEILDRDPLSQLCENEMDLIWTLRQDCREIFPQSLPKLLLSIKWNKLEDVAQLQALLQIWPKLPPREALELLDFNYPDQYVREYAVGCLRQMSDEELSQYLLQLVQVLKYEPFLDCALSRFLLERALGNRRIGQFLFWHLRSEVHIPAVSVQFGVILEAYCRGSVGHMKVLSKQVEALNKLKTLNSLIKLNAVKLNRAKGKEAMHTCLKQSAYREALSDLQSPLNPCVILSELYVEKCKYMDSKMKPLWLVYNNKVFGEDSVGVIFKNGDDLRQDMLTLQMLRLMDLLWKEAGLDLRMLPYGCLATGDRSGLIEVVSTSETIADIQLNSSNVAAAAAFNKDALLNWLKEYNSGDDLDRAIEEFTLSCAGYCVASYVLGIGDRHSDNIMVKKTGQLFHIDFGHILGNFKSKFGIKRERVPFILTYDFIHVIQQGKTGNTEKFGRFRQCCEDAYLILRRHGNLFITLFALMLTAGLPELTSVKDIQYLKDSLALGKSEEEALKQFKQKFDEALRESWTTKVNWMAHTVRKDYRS
How it was run: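 Using the KINOMEscan format, the enzyme binding affinity of each compound was determined. Each value is the inhibitor binding constant, Kd (nM).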

[2] = target: T2, PI3Kδ (Homo sapiens, UniProt O00329); assay: Enzyme binding assay (KINOMEscan, DiscoveRx); conditions: PIK3Cδ_h
T2 construct: purchased DiscoveRx Corporation, San Diego (contract service, KINOMEscan)
T2 sequence (O00329 1-1044): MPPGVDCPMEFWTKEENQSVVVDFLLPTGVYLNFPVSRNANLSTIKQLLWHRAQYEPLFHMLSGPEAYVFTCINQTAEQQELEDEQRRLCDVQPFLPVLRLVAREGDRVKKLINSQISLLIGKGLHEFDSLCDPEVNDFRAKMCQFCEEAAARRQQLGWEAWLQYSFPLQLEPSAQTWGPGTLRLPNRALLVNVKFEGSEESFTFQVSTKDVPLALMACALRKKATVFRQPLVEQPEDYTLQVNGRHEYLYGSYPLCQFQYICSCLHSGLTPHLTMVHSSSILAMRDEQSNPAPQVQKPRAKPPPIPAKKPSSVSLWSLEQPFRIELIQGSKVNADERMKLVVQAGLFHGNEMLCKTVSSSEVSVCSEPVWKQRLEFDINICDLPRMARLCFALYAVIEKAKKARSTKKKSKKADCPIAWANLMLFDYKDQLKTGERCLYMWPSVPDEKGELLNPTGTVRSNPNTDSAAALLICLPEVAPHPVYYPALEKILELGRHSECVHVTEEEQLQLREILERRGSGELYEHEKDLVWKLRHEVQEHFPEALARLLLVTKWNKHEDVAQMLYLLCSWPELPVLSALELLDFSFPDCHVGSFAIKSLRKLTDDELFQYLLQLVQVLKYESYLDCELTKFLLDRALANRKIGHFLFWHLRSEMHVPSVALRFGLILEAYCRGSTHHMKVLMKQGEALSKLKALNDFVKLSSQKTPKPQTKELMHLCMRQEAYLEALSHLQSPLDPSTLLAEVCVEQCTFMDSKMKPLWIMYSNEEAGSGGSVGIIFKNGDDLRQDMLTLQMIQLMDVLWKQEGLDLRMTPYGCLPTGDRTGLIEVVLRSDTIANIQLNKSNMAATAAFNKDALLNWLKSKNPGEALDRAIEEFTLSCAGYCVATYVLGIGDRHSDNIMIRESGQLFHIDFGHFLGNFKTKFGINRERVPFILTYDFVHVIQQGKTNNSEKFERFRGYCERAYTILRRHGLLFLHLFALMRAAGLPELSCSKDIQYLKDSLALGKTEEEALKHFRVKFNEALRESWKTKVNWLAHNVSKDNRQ
How it was run: (§1)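 Uses KINOMEscan technology to determine binding affinity toward the kinase enzymes.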

[3] = target: T3, kinase enzymes (Homo sapiens, UniProt P42336); assay: Enzyme binding assay (KINOMEscan, DiscoveRx), further kinases of Table A; conditions: PIK3Cα_h
T3 construct: purchased DiscoveRx Corporation, San Diego (contract service, KINOMEscan)
T3 sequence (P42336 whole entry): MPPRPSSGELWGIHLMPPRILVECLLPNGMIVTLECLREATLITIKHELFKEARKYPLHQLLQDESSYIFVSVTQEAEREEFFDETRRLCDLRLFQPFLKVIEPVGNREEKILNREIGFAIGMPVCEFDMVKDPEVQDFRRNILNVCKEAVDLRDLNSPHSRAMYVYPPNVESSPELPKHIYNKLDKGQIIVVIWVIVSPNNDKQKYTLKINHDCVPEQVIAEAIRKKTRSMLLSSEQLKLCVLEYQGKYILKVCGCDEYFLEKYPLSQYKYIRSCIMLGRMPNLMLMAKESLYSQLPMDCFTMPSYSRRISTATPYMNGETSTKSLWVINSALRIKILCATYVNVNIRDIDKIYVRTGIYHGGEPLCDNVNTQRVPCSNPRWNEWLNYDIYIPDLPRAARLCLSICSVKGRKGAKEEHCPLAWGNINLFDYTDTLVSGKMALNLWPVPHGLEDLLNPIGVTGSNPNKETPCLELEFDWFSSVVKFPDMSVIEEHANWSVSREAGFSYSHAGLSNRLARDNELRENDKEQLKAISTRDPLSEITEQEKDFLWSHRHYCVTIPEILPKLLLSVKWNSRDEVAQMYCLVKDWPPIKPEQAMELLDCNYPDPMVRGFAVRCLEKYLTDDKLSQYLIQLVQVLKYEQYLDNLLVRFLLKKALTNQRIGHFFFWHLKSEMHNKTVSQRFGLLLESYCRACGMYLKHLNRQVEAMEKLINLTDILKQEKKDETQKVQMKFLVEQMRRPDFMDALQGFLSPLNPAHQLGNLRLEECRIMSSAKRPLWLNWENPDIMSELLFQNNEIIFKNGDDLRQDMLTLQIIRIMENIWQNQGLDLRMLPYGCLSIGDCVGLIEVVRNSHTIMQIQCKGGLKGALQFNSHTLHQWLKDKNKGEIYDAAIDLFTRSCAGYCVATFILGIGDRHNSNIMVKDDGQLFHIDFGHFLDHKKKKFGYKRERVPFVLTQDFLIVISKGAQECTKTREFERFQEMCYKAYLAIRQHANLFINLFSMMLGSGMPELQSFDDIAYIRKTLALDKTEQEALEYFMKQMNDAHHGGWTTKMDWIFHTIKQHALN
How it was run: as §1

[4] = target: T4, kinase enzymes (Homo sapiens, UniProt P42345); assay: as above; conditions: MTOR_h
T4 construct: purchased DiscoveRx Corporation, San Diego (contract service, KINOMEscan)
How it was run: as §1

[5] = target: T5, kinase enzymes (Homo sapiens, UniProt P48736); assay: as above; conditions: PIK3Cγ_h
T5 construct: purchased DiscoveRx Corporation, San Diego (contract service, KINOMEscan)
T5 sequence (P48736 whole entry): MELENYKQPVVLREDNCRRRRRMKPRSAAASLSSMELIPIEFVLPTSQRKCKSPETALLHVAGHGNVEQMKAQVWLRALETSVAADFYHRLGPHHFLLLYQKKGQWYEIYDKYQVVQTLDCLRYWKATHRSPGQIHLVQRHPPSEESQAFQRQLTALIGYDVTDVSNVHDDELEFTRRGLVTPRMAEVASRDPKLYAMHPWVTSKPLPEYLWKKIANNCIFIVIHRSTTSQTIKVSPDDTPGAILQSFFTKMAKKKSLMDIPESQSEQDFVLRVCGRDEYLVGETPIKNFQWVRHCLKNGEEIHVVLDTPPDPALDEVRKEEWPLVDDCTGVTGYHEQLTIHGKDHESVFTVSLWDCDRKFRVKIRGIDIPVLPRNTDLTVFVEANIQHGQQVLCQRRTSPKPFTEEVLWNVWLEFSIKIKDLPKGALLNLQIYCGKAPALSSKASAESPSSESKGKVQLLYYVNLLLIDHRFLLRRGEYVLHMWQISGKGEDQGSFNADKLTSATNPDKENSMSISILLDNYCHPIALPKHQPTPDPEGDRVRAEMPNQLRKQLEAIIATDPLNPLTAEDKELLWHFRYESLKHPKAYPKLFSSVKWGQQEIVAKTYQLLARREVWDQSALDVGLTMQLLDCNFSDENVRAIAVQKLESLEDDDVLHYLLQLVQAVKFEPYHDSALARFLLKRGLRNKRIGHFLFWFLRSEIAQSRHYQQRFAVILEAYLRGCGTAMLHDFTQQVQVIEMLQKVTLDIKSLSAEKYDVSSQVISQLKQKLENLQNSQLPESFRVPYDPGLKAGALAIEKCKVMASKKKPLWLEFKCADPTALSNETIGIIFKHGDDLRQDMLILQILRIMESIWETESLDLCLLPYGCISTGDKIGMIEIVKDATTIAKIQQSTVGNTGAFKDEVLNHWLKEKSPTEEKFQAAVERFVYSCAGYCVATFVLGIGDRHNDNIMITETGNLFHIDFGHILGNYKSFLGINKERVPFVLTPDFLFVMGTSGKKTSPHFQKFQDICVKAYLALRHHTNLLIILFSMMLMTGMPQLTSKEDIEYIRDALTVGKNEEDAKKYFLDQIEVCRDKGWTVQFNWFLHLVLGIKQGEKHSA
How it was run: as §1

[6] = system: Akt phosphorylated at Ser473 in PC-3 cells; assay: Cellular assay: phosphorylation of Akt at Ser473 in PC-3 cells (MSD ELISA); type: cell-based; conditions: PC-3 cells, 60 min compound incubation, MSD ELISA, read-out: IC50 pAkt_S473
How it was run: (§2)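 Electrochemiluminescent sandwich ELISA read-out: phospho-specific capture (Ser473 or Thr308), Sulfo-tag anti-total Akt detection, signal proportional to phospho-Akt. Cells treated 60 min at 37° C with compound, DMSO 0.3%. IC50 fitted from five concentrations.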

[7] = system: Akt phosphorylated at Thr308 in PC-3 cells; assay: Cellular assay: phosphorylation of Akt at Thr308 in PC-3 cells (MSD ELISA); type: cell-based; conditions: PC-3 cells, 60 min compound incubation, MSD ELISA, read-out: IC50 pAkt_Thr308
How it was run: as §2

Row | Kd [1] | Kd [2] | Kd [3] | Kd [4] | Kd [5] | IC50 ([6]; Homo sapiens, PC-3, 1 h) | IC50 ([7]; Homo sapiens, PC-3, 1 h) | IC50 [6] | IC50 [7] | SMILES
1 | 5 nM | 1200 nM | 3800 nM | 18600 nM | 8910 nM | > 513 nM | > 513 nM | – | – | CNCCNC(=O)c1cc(C(C)Oc2ccc(Cl)c(F)c2)c2nc(N3CCOCC3)cnc2c1 (single isomer, unassigned) [Compound 380b]
2 | 2 nM | 490 nM | 2950 nM | 19100 nM | 9770 nM | 229 nM | 263 nM | – | – | CNCCN(C)C(=O)c1cc(N(C)Cc2cccc(F)c2C)c2nc(N3CCOCC3)cnc2c1 [Compound 362]
3 | 288 nM | 6760 nM | 6460 nM | 14500 nM | > 30200 nM | – | – | > 513 nM | > 513 nM | Cc1ccc(NC(C)c2cc(C(=O)NCCO)cc3ncc(N4CCOCC4)nc23)cc1F (single isomer, unassigned) [Compound 295a]
4 | 1 nM | 316 nM | 1070 nM | > 30200 nM | 8130 nM | 68 nM | 30 nM | – | – | CC(Nc1cc(F)cc(F)c1)c1cc(C(=O)N2CC3(C2)CS(=O)(=O)C3)cc2ncc(N3CCOCC3)nc12 (stereo not drawn) [Compound 148]
5 | 1 nM | 166 nM | 2950 nM | > 30200 nM | 6460 nM | 42 nM | 14 nM | – | – | CC(Nc1cc(F)c(F)c(F)c1)c1cc(C(=O)N(C)C2CCNC2)cc2ncc(N3CCOCC3)nc12 (stereo not drawn) [Compound 296]
6 | 14 nM | 2750 nM | 4680 nM | > 30200 nM | 25700 nM | – | – | 479 nM | 302 nM | CC(Nc1ccc(F)c(F)c1)c1cc(C(=O)N(C)CCN(C)C)cc2ncc(N3CCOCC3)nc12 (single isomer, unassigned) [Compound 349b]
7 | 1 nM | 18 nM | 39 nM | 21900 nM | 407 nM | – | – | 5 nM | ~4 nM | C[C@@H]1CN(c2cnc3cc(C(=O)N(C)C)cc(C4CCCN4c4cccc(F)c4)c3n2)CCO1 (single isomer, unassigned) [Compound 30]
8 | 0.3 nM | 41 nM | 257 nM | 562 nM | 1660 nM | 48 nM | 78 nM | – | – | CC(Nc1cccc(F)c1)c1cc(C(=O)N(C)C)cc2ncc(N3CCOCC3)nc12 (stereo not drawn) [Compound 85]
9 | 741 nM | 4170 nM | 8320 nM | 20000 nM | 12600 nM | > 513 nM | > 513 nM | – | – | O=C(NCCO)c1cc(N2CCCC2c2cc(F)cc(F)c2)c2nc(N3CCOCC3)cnc2c1 (single isomer, unassigned) [Compound 244]
10 | 1 nM | 71 nM | 66 nM | 1910 nM | 145 nM | > 513 nM | > 513 nM | – | – | CC(Nc1cc(F)cc(F)c1)c1cc(C(=O)NS(N)(=O)=O)cc2ncc(N3CCOCC3)nc12 (stereo not drawn) [Compound 243]
11 | 35 nM | 427 nM | 2460 nM | 28200 nM | > 30200 nM | – | – | > 513 nM | > 513 nM | Cc1c(F)cccc1CN(C)c1cc(C(=O)N2CCNC(C(F)(F)F)C2)cc2ncc(N3CCOCC3)nc12 (single isomer, unassigned) [Compound 367b]
12 | 3 nM | 331 nM | 1200 nM | > 30200 nM | 10700 nM | 263 nM | 110 nM | – | – | CC(Oc1cc(F)cc(F)c1)c1cc(C(=O)N(C)CCO)cc2ncc(N3CCOCC3)nc12 (racemic) [Compound 59]
13 | 813 nM | 21400 nM | 22400 nM | > 30200 nM | 24500 nM | – | – | > 513 nM | > 513 nM | CC(Nc1ccc(F)c(F)c1)c1cc(C(=O)NCCCO)cc2ncc(N3CCOCC3)nc12 (single isomer, unassigned) [Compound 280b]
14 | 1 nM | 269 nM | 6310 nM | > 30200 nM | 11000 nM | – | – | ~45 nM | 56 nM | CC(Oc1ccc(F)c(F)c1)c1cc(C(=O)NCCN(C)C)cc2ncc(N3CCOCC3)nc12 (single isomer, unassigned) [Compound 299a]
15 | 43 nM | 796 nM | 11300 nM | 6460 nM | 28800 nM | > 513 nM | > 513 nM | – | – | Cc1c(F)cccc1CN(C)c1cc(C(=O)N(C)[C@@H]2CCNC2)cc2ncc(N3CCOCC3)nc12 [Compound 359]
16 | 2 nM | 1000 nM | 2290 nM | > 30200 nM | 9770 nM | 14 nM | 21 nM | – | – | CN[C@H]1CCN(C(=O)c2cc(NCc3cc(F)cc(F)c3)c3nc(N4CCOCC4)cnc3c2)C1 [Compound 352]
17 | 1820 nM | > 30200 nM | > 30200 nM | > 30200 nM | > 30200 nM | > 513 nM | > 513 nM | – | – | CC(Nc1cc(F)cc(F)c1)c1cc(CN2CCO[C@H](CO)C2)cc2ncc(N3CCOCC3)nc12 (single isomer, unassigned) [Compound 194]
18 | 3 nM | 234 nM | 1740 nM | > 30200 nM | 20900 nM | – | – | 31 nM | 34 nM | CC(Nc1ccc(F)c(F)c1)c1cc(C(=O)N2CCN3CCC[C@H]3C2)cc2ncc(N3CCOCC3)nc12 (single isomer, unassigned) [Compound 287a]
19 | 17 nM | 1480 nM | 3390 nM | 21400 nM | 8130 nM | 46 nM | 26 nM | – | – | CC(Nc1cc(F)cc(F)c1)c1cc(C(C)(C)O)cc2ncc(N3CCOCC3)nc12 (stereo not drawn) [Compound 341]
20 | 3 nM | 851 nM | 5010 nM | > 30200 nM | 26300 nM | 257 nM | – | – | 166 nM | CC(Oc1ccc(Cl)c(F)c1)c1cc(C(=O)N(C)CCN(C)C)cc2ncc(N3CCOCC3)nc12 (single isomer, unassigned) [Compound 313a]
21 | 1 nM | 575 nM | 2690 nM | 20000 nM | 15800 nM | 20 nM | 7 nM | – | – | CN(C)CCNC(=O)c1cc(NCc2cc(F)cc(F)c2)c2nc(N3CCOCC3)cnc2c1 [Compound 384]
22 | 1 nM | 219 nM | 5010 nM | 20900 nM | 4680 nM | – | – | 44 nM | 33 nM | CN[C@H]1CCN(C(=O)c2cc(C(C)Oc3cc(F)c(F)c(F)c3)c3nc(N4CCOCC4)cnc3c2)C1 (single isomer, unassigned) [Compound 405b]

Row | SMILES | Kd [1] | Kd [2] | Kd [3] | Kd [4] | Kd [5] | IC50 ([6]; Homo sapiens, PC-3, 1 h) | IC50 ([7]; Homo sapiens, PC-3, 1 h) | IC50 [6] | IC50 [7]
23 | CC(Oc1cccc(F)c1)c1cc(C(=O)N(C)C)cc2ncc(N3CCOCC3)nc12 (single isomer, unassigned) [Compound 339b] | 316 nM | 1950 nM | 759 nM | 6460 nM | 2190 nM | – | – | > 513 nM | > 513 nM
24 | C[C@@H]1CN(c2cnc3cc(C(=O)N(C)C)cc(C4CCCN4c4cc(F)cc(F)c4)c3n2)CCO1 (stereo partly drawn) [Compound 4] | 1700 nM | 22900 nM | 23400 nM | > 30200 nM | > 30200 nM | > 513 nM | > 513 nM | – | –
